Data from ChEMBL document CHEMBL1833830, “1-[2-(2-Benzoyl- and 2-benzylphenoxy)ethyl]uracils as potent anti-HIV-1 agents” (Bioorg Med Chem, 2011).
In brackets after ≈: the same amount, converted by molar mass. Activity calls are given as the source filed them. No cut-off for these calls is given here.

Columns and labels:
[1] = Solubility of the compound in 0.1% DMSO after overnight incubation by UV spectrometric analysis; format: physicochemical
Human alphaherpesvirus 2 = test: Antiviral activity against HSV-2 assessed as inhibition of viral replication; format: functional, organism-based
Yellow fever virus = test: Antiviral activity against Yellow fever virus assessed as inhibition of viral replication; format: functional, organism-based
[2] = system: Human immunodeficiency virus 1; test: Antiviral activity against HIV1 3B infected in human CEM cells assessed as inhibition of virus-induced giant cell formation after 4 days by microscopic analysis; format: functional, organism-based; conditions: Human immunodeficiency virus 1, 3B, CCRF-CEM, 96 h
Vaccinia virus = test: Antiviral activity against Vaccinia virus assessed as inhibition of viral replication; format: functional, organism-based; conditions: Orthopoxvirus vaccinia
Punta Toro virus = test: Antiviral activity against Punta Toro virus assessed as inhibition of viral replication; format: functional, organism-based
Coxsackievirus B4 = test: Antiviral activity against Coxsackievirus B4 assessed as inhibition of viral replication; format: functional, organism-based
Rift Valley fever virus = test: Antiviral activity against Rift Valley fever virus assessed as inhibition of viral replication; format: functional, organism-based
Dengue virus = test: Antiviral activity against Dengue virus assessed as inhibition of viral replication; format: functional, organism-based
Human alphaherpesvirus 1 = test: Antiviral activity against HSV1 assessed as inhibition of viral replication; format: functional, organism-based
[3] = Inhibition of DNA-dependent DNA polymerase activity of HIV1 reverse transcriptase p66/p66 homodimer using activated DNA and [alpha-32P]dATP after 30 mins by liquid scintillation counting; design: species or system Human immunodeficiency virus 1
[4] = system: Human immunodeficiency virus 1; format: functional, organism-based; conditions: Human immunodeficiency virus 1, 3B, CCRF-CEM, 96 h
[5] = Solubility of the compound in 10% DMSO after overnight incubation by UV spectrometric analysis; format: physicochemical
[6] = system: Human immunodeficiency virus 2; test: Antiviral activity against Human immunodeficiency virus type 2 ROD infected in human MT4 cells assessed as inhibition of virus-induced cytopathic effect after 4 days by MTT assay; format: functional, organism-based; conditions: ISOLATE ROD
[7] = system: Human immunodeficiency virus 2; test: Antiviral activity against Human immunodeficiency virus type 2 ROD infected in human CEM cells assessed as inhibition of virus-induced giant cell formation after 4 days by microscopic analysis; format: functional, organism-based; conditions: ISOLATE ROD, CCRF-CEM
Sindbis virus = test: Antiviral activity against Sindbis virus assessed as inhibition of viral replication; format: functional, organism-based
West Nile virus = test: Antiviral activity against West Nile virus assessed as inhibition of viral replication; format: functional, organism-based
[8] = Selectivity index, ratio of CC50 for human CEM cells to EC50 for HIV1 3B; format: toxicity, cell-based, CCRF-CEM; conditions: read-out: Ratio CC50/EC50
[9] = system: Respiratory syncytial virus; test: Antiviral activity against Respiratory syncytial virus assessed as inhibition of viral replication; format: functional, organism-based
Human respirovirus 3 = test: Antiviral activity against Parainfluenza 3 virus assessed as inhibition of viral replication; format: functional, organism-based
[10] = system: Vesicular stomatitis virus; test: Antiviral activity against Vesicular stomatitis virus assessed as inhibition of viral replication; format: functional, organism-based
Feline coronavirus = test: Antiviral activity against Feline coronavirus assessed as inhibition of viral replication; format: functional, organism-based
[11] = molecular target: Human immunodeficiency virus type 1 reverse transcriptase (Human immunodeficiency virus 1, UniProt Q72547); test: Inhibition of RNA-dependent DNA polymerase activity of HIV1 reverse transcriptase p66/p51 heterodimer using [8-3H]dGTP as substrate after 30 mins by liquid scintillation counting
[12] = Cytotoxicity against human CEM cells after 4 days by MTT assay; format: cell-based; conditions: CEM cells (CCRF-CEM)
[13] = system: Mammalian orthoreovirus 1; test: Antiviral activity against Reovirus 1 assessed as inhibition of viral replication; format: functional, organism-based
[14] = system: Human immunodeficiency virus 1; format: functional, organism-based; conditions: Human immunodeficiency virus 1, 3B, MT4, 96 h
[15] = molecular target: Human immunodeficiency virus type 1 reverse transcriptase (Human immunodeficiency virus 1, UniProt Q72547, K103N)
[16] = system: Human immunodeficiency virus 1
[17] = Inhibition of DNA-dependent DNA polymerase activity of HIV1 reverse transcriptase p66/p66 homodimer L100I mutant using activated DNA and [alpha-32P]dATP after 30 mins by liquid scintillation counting; design: species or system Human immunodeficiency virus 1
in vitro [18] = conditions: human, MT4 cells
[19] = Inhibition of DNA-dependent DNA polymerase activity of HIV1 reverse transcriptase p66/p66 homodimer V106A mutant using activated DNA and [alpha-32P]dATP after 30 mins by liquid scintillation counting; design: species or system Human immunodeficiency virus 1
[20] = system: Human immunodeficiency virus 1; test: Ratio of Ki for HIV1 RT p66/p66 homodimer K103N mutant to Ki for wild-type HIV1 RT p66/p66 homodimer
[21] = system: Human immunodeficiency virus 1; test: microbe, parasite or virus in culture; conditions: Human immunodeficiency virus 1, 3B, MT4, 96 h
[22] = Inhibition of DNA-dependent DNA polymerase activity of HIV1 reverse transcriptase p66/p66 homodimer Y188L mutant using activated DNA and [alpha-32P]dATP after 30 mins by liquid scintillation counting; design: species or system Human immunodeficiency virus 1
[23] = Inhibition of DNA-dependent DNA polymerase activity of HIV1 reverse transcriptase p66/p66 homodimer G190A mutant using activated DNA and [alpha-32P]dATP after 30 mins by liquid scintillation counting; design: species or system Human immunodeficiency virus 1
[24] = system: Human immunodeficiency virus 1; test: Ratio of Ki for HIV1 RT p66/p66 homodimer Y188L mutant to Ki for wild-type HIV1 RT p66/p66 homodimer
[25] = system: Human immunodeficiency virus 1; test: Ratio of Ki for HIV1 RT p66/p66 homodimer L100I mutant to Ki for wild-type HIV1 RT p66/p66 homodimer
in vitro [26] = conditions: human, MT4 cells; remark: listed apart in the source
[27] = Cytotoxicity against human MT4 cells after 4 days by MTT assay; format: cell-based
[28] = system: Human immunodeficiency virus 1; test: Ratio of Ki for HIV1 RT p66/p66 homodimer G190A mutant to Ki for wild-type HIV1 RT p66/p66 homodimer
[29] = system: Human immunodeficiency virus 1; remark: listed apart in the source

Compound | solubility [1] [µM] | Activity (Human alphaherpesvirus 2) | Activity (Yellow fever virus) | Activity (Vaccinia virus) | Activity (Punta Toro virus) | Activity (Coxsackievirus B4) | Activity (Rift Valley fever virus) | Activity (Dengue virus) | Activity (Human alphaherpesvirus 1) | Ki [3] [µM] | solubility [5] [µM] | Activity [6] | Activity [7] | Activity (Sindbis virus) | Activity (West Nile virus) | Activity [9] | Activity (Human respirovirus 3) | Activity [10] | Activity (Feline coronavirus) | Ki [11] [µM] | other results
Cc1cc(C)cc(Cc2cc(Cl)ccc2OCCn2ccc(=O)[nH]c2=O)c1 | 0.9 (≈ 0.346 µg/mL) | inactive | inactive | inactive | inactive | inactive | inactive | inactive | inactive | 5 | 1.7 (≈ 0.654 µg/mL) | inactive | inactive | inactive | inactive | inactive | inactive | inactive | inactive | 2.1 | EC50 [2]: 0.22 µM; EC50 [4]: > 200 µM; selectivity ratio [8]: > 909; CC50 at 96 h [12]: > 200 µM; Activity [13]: inactive
O=C(c1cc(Cl)cc(Cl)c1)c1cc(Cl)ccc1OCCn1ccc(=O)[nH]c1=O | 1.9 (≈ 0.835 µg/mL) | inactive | inactive | inactive | inactive | inactive | inactive | inactive | inactive | 0.68 | 9.4 (≈ 4.13 µg/mL) | inactive | inactive | inactive | inactive | inactive | inactive | inactive | inactive | 0.82 | EC50 [14]: 1.13 µM; Ki [15]: 5.6 µM; Ratio Ki [16]: 14.9; Ki [17]: 1.8 µM; selectivity ratio (in vitro [18]): > 251; Ki [19]: > 1200 µM; Ratio Ki [20]: 8; EC50 [21]: 0.018 µM; Ki [22]: 8.4 µM; Ki [23]: 1.6 µM; Ratio Ki [24]: 12; Ratio Ki [25]: 2.5; selectivity ratio (in vitro [26]): > 15800; CC50 at 96 h [27]: > 284 µM; Ratio Ki [28]: 2.3; Activity [13]: inactive; Ratio Ki [29]: 2
